Test results from US20250281462A1, “THERAPEUTICALLY EFFECTIVE ORAL ADMINISTRATION OF A 2 ARYLBENZIMIDAZOLE” (Tranquis Therapeutics, Inc., priority 2021, published 2025).
Like-named read-outs stand apart in the source and are kept apart here.

Details: human, in vivo

Which “MPR AUC(0-inf)” value (po, 60 mg) does the source give for `CC(C)(C)c1ccc(-c2nc3cc(O)ccc3[nH]2)cc1` [TQS-621] here?
Its value is 5.63.

What about the “MPR Cmax” value (po, 60 mg) of the same compound?
Its value is 2.44.

What about the “MPR AUC(0-inf)” value (po, 90 mg) of the same compound?
The value was 6.16.

And the “MPR Cmax” value (po, 90 mg)?
The value was 1.93.

What about the “MPR AUC(0-inf)” value (po, 270 mg) of the same compound?
Its value is 5.92.

What about the “MPR Cmax” value (po, 270 mg) of the same compound?
The value was 2.62.

What about the “MPR AUC(0-inf)” value (po, 540 mg) of the same compound?
Its value is 7.91.

And the “MPR Cmax” value (po, 540 mg)?
Its value is 3.43.

And the “Frel AUC(0-inf)” value (male, 180 mg)?
Its value is 63.6%.

What about the “Frel AUC(0-last)” value (male, 180 mg) of the same compound?
Its value is 63.5%.

And the “Frel Cmax” value (male, 180 mg)?
The value was 64.9%.

And the “AUC(0-24)” value (male, po, 60 mg)?
The value was 383 ng·h/mL.

And the “AUC(0-inf)” value (male, po, 60 mg)?
The value was 410 ng·h/mL.

And the Cmax (male, po, 60 mg)?
The Cmax was 65.3 ng/mL.

And the T1/2 (male, po, 60 mg)?
The T1/2 was 4.89 h.

What about the Tmax (male, po, 60 mg) of the same compound?
The Tmax was 2.50 h.

And the “AUC(0-24)” value (male, po, 90 mg)?
The value was 1170 ng·h/mL.

And the “AUC(0-inf)” value (male, po, 90 mg)?
The value was 1200 ng·h/mL.

And the “AUC(0-last)” value (male, po, 90 mg)?
Its value is 1190 ng·h/mL.

And the Cmax (male, po, 90 mg)?
The Cmax was 214 ng/mL.

And the T1/2 (male, po, 90 mg)?
The T1/2 was 4.79 h.

And the Tmax (male, po, 90 mg)?
Its Tmax is 1.25 h.

And the “AUC(0-24)” value (male, po, 270 mg)?
The value was 4250 ng·h/mL.

What about the “AUC(0-inf)” value (male, po, 270 mg) of the same compound?
Its value is 4950 ng·h/mL.

And the Cmax (male, po, 270 mg)?
Its Cmax is 621 ng/mL.

What about the T1/2 (male, po, 270 mg) of the same compound?
The T1/2 was 10.4 h.

And the Tmax (male, po, 270 mg)?
The Tmax was 2.00 h.

And the “AUC(0-24)” value (male, po, 540 mg)?
Its value is 10800 ng·h/mL.

And the “AUC(0-inf)” value (male, po, 540 mg)?
Its value is 12700 ng·h/mL.

And the Cmax (male, po, 540 mg)?
The Cmax was 1110 ng/mL.

And the T1/2 (male, po, 540 mg)?
The T1/2 was 11.3 h.

What about the Tmax (male, po, 540 mg) of the same compound?
Its Tmax is 4.00 h.
